Test results: patent publication US20030185878A1, “Process for producing phospholipid-containing drug” (priority 2002, published 2003)

Row | SMILES | melting point
1 | Cn1ncc2c1-c1c(Oc3ccc(OCc4ccccc4)cc3)sc(C(N)=O)c1CC2 [compound 5, 8-(4-Benzyloxyphenoxy)-4,5-dihydro-1-methyl-1H-thieno[3,4-g]indazole-6-carboxamide] | 200 to 201 °C
2 | Cc1cccc(Oc2sc(C(N)=O)c3c2-c2c(cnn2CC(F)(F)F)CC3)c1C [compound 9, 4,5-Dihydro-8-(2,3-dimethylphenoxy)-1-(2,2,2-trifluoroethyl)-1H-thieno[3,4-g]indazole-6-carboxamide] | 190 to 191 °C
3 | Cn1ncc2c1-c1c(Oc3ccc(OCc4ccncc4)cc3)sc(C(N)=O)c1CC2 [compound 14, 4,5-Dihydro-1-methyl-8-[4-(4-pyridylmethyloxy)phenoxy]-1H-thieno[3,4-g]indazole-6-carboxamide] | 249 to 250 °C

Other lines, results leading:

Row | melting point | SMILES
4 | 204 to 205 °C | Cn1ncc2c1-c1c(Oc3ccc4c(c3)OCO4)sc(C(N)=O)c1CC2 [Reference Example 4, 4,5-Dihydro-1-methyl-8-(3,4-methylenedioxyphenoxy)-1H-thieno[3,4-g]indazole-6-carboxamide]
5 | 203 to 205 °C | COc1ccc(Oc2sc(C(N)=O)c3c2-c2c(cnn2C)CC3)cc1 [compound 6, 4,5-Dihydro-1-methyl-8-(4-methoxyphenoxy)-1H-thieno[3,4-g]indazole-6-carboxamide]
6 | 212 to 213 °C | Cn1ncc2c1-c1c(Oc3ccc(OC(F)(F)F)cc3)sc(C(N)=O)c1CC2 [compound 7, 4,5-Dihydro-1-methyl-8-(4-trifluoromethoxyphenoxy)-1H-thieno[3,4-g]indazole-6-carboxamide]
7 | 188 to 189 °C | Cn1ncc2c1-c1c(Oc3ccc(F)cc3)sc(C(N)=O)c1CC2 [compound 15, 4,5-Dihydro-1-methyl-8-(4-fluorophenoxy)-1H-thieno[3,4-g]indazole-6-carboxamide]
